From patent publication US20260232684A1, “FLT3 INHIBITORS AND METHODS OF USING THE SAME” (BIOVENTURES, LLC, priority 2023, published 2026)

How the values were obtained:
[1] = target: FLT3 D835Y (Homo sapiens, UniProt P36888, D835Y); experiment: Enzyme kinetic analysis (5-FAM microfluidic assay), FLT3 D835Y; format: biochemical; conditions: variable ATP and inhibitor concentrations
Procedure: FIG. 14. Enzyme kinetic analysis of compound 1 and 2 against FLT3 and FLT3 D835Y. The 5-FAM labeled microfluidic assay was utilized and all the activities were measured using Caliper EZ Reader II with a 12-sipper chip. In the presence of variable concentrations of compound 1 or 2, phosphorylation activities of FLT3 and FLT3 D835Y were measured at different level of ATP within certain time durations.
To further assess putative binding modes of compounds 1 and 2, enzyme kinetic analyses were performed.

[2] = tested on: Molm-14 F691L cells stably expressing firefly luciferase; experiment: Circulating tumor model, Molm14 F691L luciferase; format: in vivo
Procedure: FIG. 7. […] Molm14 F691L stably expressing FLuc9 were engrafted in mice through tail vein injection. Mice were imaged once every three days.
Molm-14 F691L cells stably expressing firefly luciferase were injected into the tail vein of NSG mice and tumor growth was monitored through bioluminescence.

[3] = tested on: Ba/F3 FLT3-ITD F691M line; experiment: Cell viability, Ba/F3 FLT3-ITD F691M gatekeeper mutant; format: cell-based; conditions: IC50, 48 hours, CellTiter GLO
Procedure: (§1) FIG. 3. Molecular docking study of compound 1 and impact of the most common gatekeeper variants in the human kinome on activity toward […]. […] The dim FLT3 active model was built using 1PKG (KIT) as a reference using Prime (Schrodinger®). The complex of active FLT3 bound to 1 was minimized by Embrace (Schrodinger®). […] Cells were treated with inhibitor at increasing log doses (0.1 nM-10 μM) for 48 hours. Cell viability was analyzed through CellTiter GLO.
(§2) To further investigate the possibility of a hydrophobic cage interaction and its contribution to the selectivity of compound 1, we assessed the impact of substitutions of the native phenylalanine at position 691 with the other residues most commonly found at this position in the human kinome (methionine, threonine, isoleucine, or valine). Ba/F3 cells transformed with FLT3-ITD or with FLT3-ITD substitutions at position 691 were assessed for sensitivity to compound 1 (FIG. 3C).
(§3) Exponentially growing cells (1×10^3-1×10^4 cells) were plated in triplicate in a 96-well plate with 0.1 mL of RPMI 1640+10% (vol/vol) FBS. Each triplicate was either dosed with drug or DMSO vehicle control. Drug dosing was completed at log doses ranging from 0.1 nM-10 μM. Cell viability was assessed after 48 hours using CellTiter GLO (Promega). Viability values were normalized to the vehicle control average. Numerical IC50 values were calculated in GraphPad Prism 7. […]

[4] = tested on: Ba/F3 FLT3-ITD with Thr, Ile, or Val gatekeeper residues; experiment: Cell viability, Ba/F3 FLT3-ITD with Thr, Ile or Val gatekeeper; format: cell-based; conditions: other gatekeeper mutants (Thr, Ile, Val) compared with F691M
Procedure: as §1, §2, §3

Row | Structure (SMILES) | binding mode / inhibition model from enzyme kinetics [1] | tumor growth compared to gilteritinib ([2]; both doses of compound 2 (5 or 10 mg/kg) vs gilteritinib 33 mg/kg) | tumor growth (bioluminescence), in words ([2]; daily oral gavage 14 days, compound 2 5 or 10 mg/kg, gilteritinib 33 mg/kg, vs vehicle control) | loss of activity relative to the Ba/F3 FLT3-ITD line [3] | loss of activity relative to the Ba/F3 FLT3-ITD line, in words [4]
1 | CC(C)(C)c1cc(NC(=O)Cc2ccc(-c3cnc4cc(-c5cnn(CCN6CCOCC6)c5)ccc4n3)cc2)no1 [Compound 2, N-(5-(tert-butyl)isoxazol-3-yl)-2-(4-(6-(1-(2-morpholinoethyl)-1H-pyrazol-4-yl)quinoxalin-2-yl)phenyl) acetamide] | intermediate conformation between type 1 and type 2 | statistically significant difference compared to gilteritinib | nearly halt all tumor growth |  | 
2 | CN(C)CCNc1ncc(F)c(-c2cnc3cc(-c4cnn(C)c4)ccn23)n1 [Compound 1] |  |  |  | ~100 fold | an even greater impact
